# Test results reported in US9062067B2, “Process for preparation of darunavir and darunavir ethanolate of fine particle size” (Lupin Limited, priority 2009, dated 2015).
# Columns and labels:
# Bulk and tapped density = type: physicochemical; settings: after jet mill micronization, Example 4
# [1] = Particle size distribution (Malvern mastersizer); type: physicochemical; settings: after jet mill micronization, Example 4
# From the text: The particle size of the darunavir ethanolate obtained by the process of present invention can be determined by any method known in the art such as laser diffraction, sieve analysis, microscope observation, sedimentation etc. Malvern mastersizer is an instrument employed for particle size determination in the present invention.
smiles,measurement,setting,value
"CC(C)CN(C[C@@H](O)[C@H](Cc1ccccc1)NC(=O)O[C@H]1CO[C@H]2OCC[C@H]21)S(=O)(=O)c1ccc(N)cc1 [darunavir ethanolate, Darunavir ethanolate]",Bulk density,Bulk and tapped density,0.42 g/mL
same,Tapped density,Bulk and tapped density,0.72 g/mL
same,Particle size distribution d0.1,[1],2 μm
same,Particle size distribution d0.5,[1],18 μm
same,Particle size distribution d0.9,[1],97 μm
